In patent US6949250B2, “Selective algaecides for control of cyanochloronta” (The United States of America as represented by the …, priority 2002, dated 2005):

Key:
O. perornata = test: DNA1-19-1 second and third pond efficacy studies: O. perornata filaments; type: in vivo, Oscillatoria perornata; conditions: second and third efficacy study; 1, 0.3, and 0.1 μM
Procedure: (§1) The method described by Schrader et al. (2000) was used to determine the potential for using the anthraquinone derivatives as selective algicides in catfish aquaculture ponds. All catfish ponds used in efficacy tests were maintained using commercial pond management practices and were located at the Thad Cochran Pond Facility, Mississippi State University, Stoneville, Miss. Anthraquinone analogs were dissolved in deionized water before application to water within the limnocorrals.
(§2) Limnocorrals in which test compound was applied to the enclosed water were randomly selected, and control (no test compound applied) limnocorrals were included in each efficacy study. For each sampling, two water samples (250 mL) were obtained from within each limnocorral (approximately 6-8 cm below the water surface and from opposite sides of each limnocorral) and mixed together in a 500 mL sample bottle to provide a representative sample of the water contained within the limnocorral.
In the second study with DNA1-19-1, twelve limnocorrals that were the same size as those used in the first study were placed in another 4-ha earthen catfish pond. […] The sampling regime and procedures used in the first study were followed in a similar manner, except that water samples were obtained before DNA1-19-1 application, 16 hours after application, and at days 2, 4, and 7. […]

[1] = DNA2-59-1 second efficacy study: dissipation rate and half-life in pond water (HPLC); type: physicochemical; conditions: for DNA2-59-1 Levels in Pond Water: second study, 0.3 μM applied
Procedure: In the second efficacy test with DNA2-59-1, six limnocorrals (1.53 m in diameter and 1.53 m high) were placed in a 0.1-ha earthen pond containing a heavy bloom of O. perornata. The same delay in mixing the water within the limnocorrals used in the first efficacy study was utilized. Water within three randomly selected limnocorrals received an application rate of 0.3 μM DNA2-59-1, and the other three limnocorrals were controls. Water samples were collected before application of DNA2-59-1, 20 minutes after application, and at days 1, 2, 3, and 7. The same tests and methods used in the first efficacy testing of DNA2-59-1 were used.
Approximately 15 mL each of water samples from DNA2-59-1 efficacy testing that were designated for HPLC analysis were placed in scintillation vials and held in a freezer. Water samples were later melted at room temperature, and 5 mL of each sample was then filtered through a nylon membrane filter (13 mm diameter and 0.45 μm; Whatman International, Maidstone, England) using a 5 mL syringe (Hamilton Company, Reno, Nev.) and a 13 mm syringe filter holder (Fisher Scientific Company, Pittsburgh, Pa.). Filtrate (1 mL) was placed in 2 mL vials and capped using teflon/rubber septum caps (National Scientific Company, Jeddah, Saudia Arabia). The filter paper was removed and placed in a scintillation vial to which 2 mL of HPLC grade methanol (Fisher Scientific, Fair Lawn, N.J.) was added and then sonicated for 5 minutes. The methanol solution was then filtered using a nylon membrane acrodisc (25 mm and 0.45 μm; Pall Life Sciences, Ann Arbor, Mich.), and the methanol filtrate was placed in separate 2 mL vials.
Filtrate samples were analyzed using a Waters 2690 Alliance HPLC containing a 996 PDA detector and a XTerra RP 18 column (150 mm×4.6 mm, 5 μm particle size; Waters Corporation, Milford, Mass.). The mobile phase consisted of 25 mM sodium dihydrogenphosphate in 0.1% phosphoric acid (A) and acetonitrile (B). The gradient was from 80A/20B in 15 minutes to 40A/60B. After each run, a 5 minute wash with methanol was performed, followed by equilibrating the column for 10 minutes with 80A/20B. The temperature was set at 40° C., the flow rate was 1 mL/minute, the detection wavelength 256 nm, and the sample injection volume was 10 μL. All solvents used were HPLC grade (Fisher Scientific, Fair Lawn, N.J.).
Means and standard deviations of data were determined and graphed. The graphs were used to help determine the half-life of DNA2-59-1 in the pond water. Because of the short duration of the first efficacy study, the half-life of DNA2-59-1 in the pond water could not be determined.

2-methylisoborneol = test: DNA2-59-1 third pond efficacy study: MIB levels; type: in vivo; conditions: 0.3 μM, 24 hours after application
Procedure: as §1, §2
(§3) For the third efficacy test with DNA2-59-1, twelve limnocorrals (2.44 m in diameter and 1.53 m high) were placed in a 4-ha earthen pond containing a bloom of O. perornata. […]

green algae [2] = test: DNA2-59-1 first pond efficacy study: green algae abundance; type: in vivo; conditions: first study, 0.1, 0.3 and 1 μM
Procedure: as §1
Limnocorrals in which test compound was applied to the enclosed water were randomly selected, and control (no test compound applied) limnocorrals were included in each efficacy study. […]
In the first study, application rates of 0.1 μM (37.7 μg/L), 0.3 μM ([…]), and 1.0 μM (377 μg/L) of DNA2-59-1 were tested using limnocorrals (three replicates per concentration) that were of the same type used for testing DNA1-19-1. […] Water samples were also analyzed to determine the persistence of DNA2-59-1 in the pond water, and this analysis was performed by using high-pressure liquid chromatography (HPLC) (method and results are described later).

green algae [3] = test: DNA2-59-1 third pond efficacy study: green algae abundance; type: in vivo; conditions: 0.3 μM, from three days after application
Procedure: as §1, §2, §3

Oscillatoria agardhii = test: DNA2-59-1 third pond efficacy study: Oscillatoria agardhii abundance; type: in vivo; conditions: 0.3 μM
Procedure: as §1, §2, §3

| Structure (SMILES) | numbers of O. perornata filaments compared to controls (result in words) (O. perornata) | half-life at 0.3 μM ([1]; pond water in limnocorrals (earthen catfish pond), second efficacy study) | DNA2-59-1 Levels in Pond Water ([1]; 0 hours) | DNA2-59-1 Levels in Pond Water ([1]; 24 hours) | DNA2-59-1 Levels in Pond Water ([1]; 48 hours) | DNA2-59-1 Levels in Pond Water ([1]; 72 hours) | DNA2-59-1 Levels in Pond Water ([1]; 168 hours) | Levels of 2-methylisoborneol (result in words) (2-methylisoborneol) | Numbers of green algae compared to controls (result in words) (green algae [2]) | Numbers of green algae vs control limnocorrals (result in words) (green algae [3]) | Numbers of Oscillatoria agardhii (result in words) (Oscillatoria agardhii) |
| --- | --- | --- | --- | --- | --- | --- | --- | --- | --- | --- | --- |
| CCN(CC)CCCC(C)NCc1ccc2c(c1)C(=O)c1ccccc1C2=O.O=P(O)(O)O.O=P(O)(O)O (centres unmarked) [DNA1-19-1, 2-[methylamino-N-(1′-methyl-4′-N,N-diethylaminobutyl)]-9,10-anthraquinone diphosphate] | lack of reduction |  |  |  |  |  |  |  |  |  |  |
| CC(C)NCc1ccc2c(c1)C(=O)c1ccccc1C2=O [DNA2-59-1, 2-[methylamino-N-(1′-methylethyl)]-9,10-anthraquinone monophosphate] |  | 19 h | 94.8 ± 11.5 µg/L | 36.1 ± 4.5 µg/L | 16.3 ± 0.4 µg/L | 7.6 ± 0.7 µg/L | 0 µg/L | significantly reduced | not significantly affected | significantly higher | significantly reduced |
